According to patent US9951066B2, “Compositions, uses and methods for making them” (Pimera, Inc., priority 2014, dated 2018):

test system: A375 cell line; assay: Alamar Blue cell viability assay, A375; assay type: cell-based; settings: Homo sapiens, A-375, 96 h, read-out: Pharmaceutical activity in A375 cell line IC50
Procedure: Inhibitory activity on cell proliferation of representative compounds of the invention was determined using an Alamar Blue cell viability assay as described hereafter.
3000 cancer cells in 100 uL of cell culture media were plated in each well of a 96-well clear bottom, black wall cell culture-pretreated plate.
The next day compounds are serially diluted (3-fold in cell culture media) across a 96-well polypropylene mother plate from row A to row F, to yield 6 concentrations (10 uM, 3.3 uM, 1.1 uM, 370 nM, 124 nM and 41 nM) for each test compound. Rows G and H contain only DMSO.
Once titrations are made, the media in plates with cells were disposed and 100 μL of drug dilutions are transferred to plates with cells. After a ninety six-hour incubation at 37° C., 10 uL of resazurin solution from Alamar Blue Cell Viability kit (Invitrogen, Carlsbad, Calif.) was added to the media and cells were incubated at 37° C. for three more hours. At the end of this incubation the production of resofurin was measured using Spectrmax M2 microplate reader (Molecular Devices, Sunnyvale, Calif.)

SMILES | IC50
CC(C)NC(=O)c1cc2ccc(N3CCN(C)CC3)nc2n2c1nc1ccccc12 [Compound 5D] | 5 to 10 µM

same assay, conditions: Homo sapiens, A-375; Table 4; cell proliferation inhibition, Alamar Blue, 96 h incubation; read-out: Pharmaceutical activity in A375 cell line IC50

SMILES | IC50
N#Cc1cc2ccc(NCCN3CCOCC3)nc2n2c1nc1ccccc12 [Compound 3E, 2-(2-Morpholin-4-yl-ethylamino)-1,7,11b-triaza-benzo[c]fluorene-6-carbonitrile] | 1 to 5 µM
CNC(=O)c1cc2ccc(NCCN(C)C)nc2n2c1nc1ccccc12 [Compound 12C, 2-(2-Dimethylamino-ethylamino)-1,7,11b-triaza-benzo[c]fluorene-6-carboxylic acid methylamide] | < 1 µM
CNC(=O)c1cc2ccc(N3CCC[N+](C)(C)CC3)nc2n2c1nc1ccccc12 [Compound 6A, 1,1-Dimethyl-4-(6-methylcarbamoyl-1,7,11b-triaza-benzo[c]fluoren-2-yl)-[1,4]diazepan-1-ium; iodide] | 5 to 10 µM
COCCNc1ccc2cc(C#N)c3nc4ccccc4n3c2n1 [Compound 3I, 2-(2-Methoxy-ethylamino)-1,7,11b-triaza-benzo[c]fluorene-6-carbonitrile] | 1 to 5 µM
CNC(=O)c1cc2ccc(N3CCN(C)CC3)nc2n2c1nc1ccccc12 [Compound 5C] | 1 to 5 µM
O=C(NCCN1CCCC1)c1cc2cc(F)cnc2n2c1nc1ccccc12 [Compound 7I, 3-Fluoro-1,7,11b-triaza-benzo[c]fluorene-6-carboxylic acid (2-pyrrolidin-1-yl-ethyl)-amide] | 1 to 5 µM
O=C(NCCN1CCCC1)c1cc2cnccc2n2c1nc1ccccc12 [Compound 13G] | < 1 µM
N#Cc1cc2ccc(N3CCCNCC3)nc2n2c1nc1ccccc12 [Compound 3D, 2-[1,4]Diazepan-1-yl-1,7,11b-triaza-benzo[c]fluorene-6-carbonitrile] | < 1 µM
NNC(=O)c1cc2ccc(NCCN3CCOCC3)nc2n2c1nc1ccccc12 [Compound 11C, 2-(2-Morpholin-4-yl-ethylamino)-1,7,11b-triaza-benzo[c]fluorene-6-carboxylic acid hydrazide] | 5 to 10 µM
CN1CCN(c2ccc3cc(C(=O)NC4CC4)c4nc5ccccc5n4c3n2)CC1 [Compound 5E, 2-(4-Methyl-piperazin-1-yl)-1,7,11b-triaza-benzo[c]fluorene-6-carboxylic acid cyclopropylamide] | 1 to 5 µM
O=C(NCCN1CCOCC1)c1cc2cnccc2n2c1nc1ccccc12 [Compound 13F, 3,7,11b-Triaza-benzo[c]fluorene-6-carboxylic acid (2-morpholin-4-yl-ethyl)-amide] | 5 to 10 µM
CN(C)CCNC(=O)c1cc2cnccc2n2c1nc1ccccc12 [Compound 13D, 3,7,11b-Triaza-benzo[c]fluorene-6-carboxylic acid (2-dimethylamino-ethyl)-amide] | < 1 µM
CN1CCCN(C(=O)c2cc3cc(F)cnc3n3c2nc2ccccc23)CC1 [Compound 7C, (3-Fluoro-1,7,11b-triaza-benzo[c]fluoren-6-yl)-(4-methyl-[1,4]diazepan-1-yl)-methanone] | > 10 µM
CNC(=O)c1cc2c(N3C[C@@H](C)N[C@@H](C)C3)ccnc2n2c1nc1ccccc12 [Compound 8D] | < 1 µM
CN1CCCN(c2ccc3cc(C#N)c4nc5ccccc5n4c3n2)CC1 [Compound 3C, 2-(4-Methyl-[1,4]diazepan-1-yl)-1,7,11b-triaza-benzo[c]fluorene-6-carbonitrile] | < 1 µM
O=C(NCCN1CCOCC1)c1cc2cc(F)cnc2n2c1nc1ccccc12 [Compound 7G, 3-Fluoro-1,7,11b-triaza-benzo[c]fluorene-6-carboxylic acid (2-morpholin-4-yl-ethyl)-amide] | > 10 µM
Cc1nnc(-c2cc3ccc(N4CCCN(C)CC4)nc3n3c2nc2ccccc23)o1 [Compound 10E, 2-(4-Methyl-[1,4]diazepan-1-yl)-6-(5-methyl-[1,3,4]oxadiazol-2-yl)-1,7,11b-triaza-benzo[c]fluorine] | < 1 µM
CNC(=O)c1cc2ccc(NCCN3CCOCC3)nc2n2c1nc1ccccc12 [Compound 11D, 2-(2-Morpholin-4-yl-ethylamino)-1,7,11b-triaza-benzo[c]fluorene-6-carboxylic acid methylamide] | 1 to 5 µM
CNNC(=O)c1cc2ccc(N3CCCN(C)CC3)nc2n2c1nc1ccccc12 [Compound 4D, 2-(4-Methyl-[1,4]diazepan-1-yl)-1,7,11b-triaza-benzo[c]fluorene-6-carboxylic acid N′-methyl-hydrazide] | < 1 µM
N#Cc1cc2ccc(NCCn3ccnc3)nc2n2c1nc1ccccc12 [Compound 3G, 2-(2-Imidazol-1-yl-ethylamino)-1,7,11b-triaza-benzo[c]fluorene-6-carbonitrile] | 1 to 5 µM
CNC(=O)c1cc2c(N3CCCN(C)CC3)ccnc2n2c1nc1ccccc12 [Compound 8B, 4-(4-Methyl-[1,4]diazepan-1-yl)-1,7,11b-triaza-benzo[c]fluorene-6-Carboxylic acid methylamide] | < 1 µM
O=C(O)c1cc2cc(F)cnc2n2c1nc1ccccc12 [Compound 7B, 3-Fluoro-1,7,11b-triaza-benzo[c]fluorene-6-carboxylic acid] | > 10 µM
CN(C)C1CCN(c2ccc3cc(C#N)c4nc5ccccc5n4c3n2)C1 (centres unmarked) [Compound 3F, 2-(3-Dimethylamino-pyrrolidin-1-yl)-1,7,11b-triaza-benzo[c]fluorene-6-carbonitrile] | < 1 µM
[2H]C([2H])([2H])NC(=O)c1cc2ccc(N3CCCN(C)CC3)nc2n2c1nc1ccccc12 [Compound 4E, 2-(4-Methyl-[1,4]diazepan-1-yl)-1,7,11b-triaza-benzo[c]fluorene-6-carboxylic acid methyl-d3-amide] | 1 to 5 µM
CN(C)CCNC(=O)c1cc2cc(F)cnc2n2c1nc1ccccc12 [Compound 7F, 3-Fluoro-1,7,11b-triaza-benzo[c]fluorene-6-carboxylic acid (2-dimethylamino-ethyl)-amide] | 1 to 5 µM
O=C(c1cc2cc(F)cnc2n2c1nc1ccccc12)N1CCCNCC1 [Compound 7D, [1,4]Diazepan-1-yl-(3-fluoro-1,7,11b-triaza-benzo[c]fluoren-6-yl)-methanone] | > 10 µM
CN(C)CCNc1ccc2cc(C(=O)NN)c3nc4ccccc4n3c2n1 [Compound 12B, 2-(2-Dimethylamino-ethylamino)-1,7,11b-triaza-benzo[c]fluorene-6-carboxylic acid hydrazide] | 1 to 5 µM
CN1CCCN(c2ccc3cc(C(=O)NC#N)c4nc5ccccc5n4c3n2)CC1 [Compound 4C] | < 1 µM

same assay, conditions: Homo sapiens, A-375; cell proliferation inhibition, Alamar Blue, 96 h incubation; read-out: Pharmaceutical activity IC50 A375

SMILES | IC50
CN1CCCN(c2ccc3cc(C(=O)NCC4(C)COC4)c4nc5ccccc5n4c3n2)CC1 [Compound 2F, 2-(4-Methyl-[1,4]diazepan-1-yl)-1,7,11b-triazabenzo[c]fluorene-6-carboxylic acid (3-methyloxetan-3-ylmethyl)-amide] | 1 to 5 µM
CN1CCCN(c2ccc3cc(C(=O)NC4CC4)c4nc5ccccc5n4c3n2)CC1 [Compound 2C, 2-(4-methyl-[1,4]diazepan-1-yl)-1,7,11b-triazabenzo[c]fluorene-6-carboxylic acid cyclopropylamide] | 1 to 5 µM
CC(C)NC(=O)c1cc2ccc(N3CCCN(C)CC3)nc2n2c1nc1ccccc12 [Compound 2A, 2-(4-methyl-[1,4]diazepan-1-yl)-1,7,11b-triazabenzo[c]fluorene-6-carboxylic acid isopropylamide] | 5 to 10 µM
